Data taken from PubChem BioAssay AID1963825 (Molecular Pharmacology Branch, DTP, NCI, 2024).

Assay: Anticancer human tumor 997537-175-T-J1-PDC patient-derived colon adenocarcinoma cell line growth inhibition [POLQ]
Details: 997537-175-T-J1-PDC complex spheroid viability, combination with POLQ inhibitors; for IC50: curve of first compound; for viability, T/C: stronger effect = lower value
How it was run: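 Three-cell-type spheroids modelling solid tumor plus stroma served as the readout system; POL inhibitors were tested individually and in combination, concentration ranges set by clinical Cmax where known.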

[1] = second compound 0.0316 µM, first compound 0.0316 µM
[2] = second compound 0.0316 µM, first compound 0.1 µM
[3] = second compound 0.0316 µM, first compound 0.316 µM
[4] = second compound 0.0316 µM, first compound 1 µM
[5] = second compound 0.0316 µM, first compound 3.16 µM
[6] = second compound 0.0316 µM, first compound 10 µM
[7] = second compound 0.1 µM, first compound 0.0316 µM
[8] = second compound 0.1 µM, first compound 0.1 µM
[9] = second compound 0.1 µM, first compound 0.316 µM
[10] = second compound 0.1 µM, first compound 1 µM
[11] = second compound 0.1 µM, first compound 3.16 µM
[12] = second compound 0.1 µM, first compound 10 µM
[13] = second compound 0.316 µM, first compound 0.0316 µM
[14] = second compound 0.316 µM, first compound 0.1 µM
[15] = second compound 0.316 µM, first compound 0.316 µM
[16] = second compound 0.316 µM, first compound 1 µM
[17] = second compound 0.316 µM, first compound 3.16 µM
[18] = second compound 0.316 µM, first compound 10 µM
[19] = second compound 1 µM, first compound 0.0316 µM
[20] = second compound 1 µM, first compound 0.1 µM
[21] = second compound 1 µM, first compound 0.316 µM
[22] = second compound 1 µM, first compound 1 µM
[23] = second compound 1 µM, first compound 3.16 µM
[24] = second compound 1 µM, first compound 10 µM
[25] = second compound 3.16 µM, first compound 0.0316 µM
[26] = second compound 3.16 µM, first compound 0.1 µM
[27] = second compound 3.16 µM, first compound 0.316 µM
[28] = second compound 3.16 µM, first compound 1 µM
[29] = second compound 3.16 µM, first compound 3.16 µM
[30] = second compound 3.16 µM, first compound 10 µM
[31] = second compound 10 µM, first compound 0.0316 µM
[32] = second compound 10 µM, first compound 0.1 µM
[33] = second compound 10 µM, first compound 0.316 µM
[34] = second compound 10 µM, first compound 1 µM
[35] = second compound 10 µM, first compound 3.16 µM
[36] = second compound 10 µM, first compound 10 µM
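Further: luminescence signal used as a surrogate for viable cells; spheroids exposed to drugs for seven days before readout.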

Nc1ccn(C2OC(CO)C(O)C2(F)F)c(=O)n1 (centres undefined) + Nc1ccc(C#CCN(C(=O)Cc2ncc(C(F)(F)F)cc2C(F)(F)F)c2ccc(F)cc2)nn1
IC50 (second compound 0.0316 µM): > 10 µM
IC50 (second compound 0.1 µM): > 10 µM
IC50 (second compound 0.316 µM): > 10 µM
IC50 (second compound 1 µM): > 10 µM
IC50 (second compound 3.16 µM): > 10 µM
IC50 (second compound 10 µM): > 10 µM
viability, T/C [1]: 92.5%
viability, T/C [2]: 100%
viability, T/C [3]: 87.8%
viability, T/C [4]: 89.5%
viability, T/C [5]: 80.7%
viability, T/C [6]: 72.5%
viability, T/C [7]: 109%
viability, T/C [8]: 108%
viability, T/C [9]: 101%
viability, T/C [10]: 68.2%
viability, T/C [11]: 67.9%
viability, T/C [12]: 47.3%
viability, T/C [13]: 97.9%
viability, T/C [14]: 102%
viability, T/C [15]: 81.8%
viability, T/C [16]: 92.9%
viability, T/C [17]: 92%
viability, T/C [18]: 66.2%
viability, T/C [19]: 102%
viability, T/C [20]: 99.6%
viability, T/C [21]: 84%
viability, T/C [22]: 74.4%
viability, T/C [23]: 88.7%
viability, T/C [24]: 77.5%
viability, T/C [25]: 100%
viability, T/C [26]: 105%
viability, T/C [27]: 84.7%
viability, T/C [28]: 83.8%
viability, T/C [29]: 70.8%
viability, T/C [30]: 84.5%
viability, T/C [31]: 102%
viability, T/C [32]: 113%
viability, T/C [33]: 89%
viability, T/C [34]: 94.1%
viability, T/C [35]: 89.7%
viability, T/C [36]: 74.2%

O=C(c1cc(Cc2n[nH]c(=O)c3ccccc23)ccc1F)N1CCN(C(=O)C2CC2)CC1 + Nc1ccc(C#CCN(C(=O)Cc2ncc(C(F)(F)F)cc2C(F)(F)F)c2ccc(F)cc2)nn1
IC50 (second compound 0.0316 µM): > 10 µM
IC50 (second compound 0.1 µM): > 10 µM
IC50 (second compound 0.316 µM): > 10 µM
IC50 (second compound 1 µM): > 10 µM
IC50 (second compound 3.16 µM): > 10 µM
IC50 (second compound 10 µM): > 10 µM
viability, T/C [1]: 108%
viability, T/C [2]: 104%
viability, T/C [3]: 100%
viability, T/C [4]: 99.9%
viability, T/C [5]: 95.3%
viability, T/C [6]: 82%
viability, T/C [7]: 108%
viability, T/C [8]: 103%
viability, T/C [9]: 94.4%
viability, T/C [10]: 93.7%
viability, T/C [11]: 84.6%
viability, T/C [12]: 94.8%
viability, T/C [13]: 106%
viability, T/C [14]: 111%
viability, T/C [15]: 104%
viability, T/C [16]: 98.3%
viability, T/C [17]: 93.5%
viability, T/C [18]: 98.9%
viability, T/C [19]: 104%
viability, T/C [20]: 98.2%
viability, T/C [21]: 103%
viability, T/C [22]: 104%
viability, T/C [23]: 93.2%
viability, T/C [24]: 99.3%
viability, T/C [25]: 96.7%
viability, T/C [26]: 94.4%
viability, T/C [27]: 98.8%
viability, T/C [28]: 90.1%
viability, T/C [29]: 98.5%
viability, T/C [30]: 95.3%
viability, T/C [31]: 108%
viability, T/C [32]: 103%
viability, T/C [33]: 97.3%
viability, T/C [34]: 91.3%
viability, T/C [35]: 112%
viability, T/C [36]: 98.9%
